From ChEMBL document CHEMBL1129785, “Preparation and structure-activity relationship of novel P1/P1'-substituted cyclic urea-based human immunodeficiency virus type-1 protease inhibitors” (J Med Chem, 1996)
Values joined by “and” are separate entries in the source; they are usually repeats but may differ in a detail not shown here. Identical values can stand only once.

Columns and labels:
[1] = test system: Human immunodeficiency virus 1; experiment: Antiviral potency was assessed by measuring the effect on accumulation of viral RNA transcripts 3 days after infection of MT-2 cells with HIV-1 RF; format: functional, MT2
[2] = biological target: Human immunodeficiency virus type 1 protease (Human immunodeficiency virus 1) (UniProt Q72874); experiment: Ability to increase whole-cell antiviral efficacy through better translation defined as the ratio between IC90 and Ki; format: functional
[3] = biological target: Human immunodeficiency virus type 1 protease (Human immunodeficiency virus 1, UniProt Q72874); experiment: Inhibitory activity against HIV protease
[4] = Human immunodeficiency virus 1, MT2, 72 h

SMILES | IC90 [1, 4] | Ratio [2] | Ki [3] | IC90 [1]
CN(C)c1cccc(C[C@@H]2[C@H](O)[C@@H](O)[C@@H](Cc3cccc(N(C)C)c3)N(Cc3ccccc3)C(=O)N2Cc2ccccc2)c1 | 1200 nM | 280 | 4.3 nM | –
COc1cccc(C[C@@H]2[C@H](O)[C@@H](O)[C@@H](Cc3cccc(OC)c3)N(Cc3ccccc3)C(=O)N2Cc2ccccc2)c1 | 350 nM | 75 | 4.7 nM | –
CS(=O)(=O)c1ccc(C[C@@H]2[C@H](O)[C@@H](O)[C@@H](Cc3ccc(S(C)(=O)=O)cc3)N(Cc3ccccc3)C(=O)N2Cc2ccccc2)cc1 | 470 nM | 190 | 2.5 nM | –
O=C1N(Cc2ccccc2)[C@H](Cc2ccncc2)[C@H](O)[C@@H](O)[C@@H](Cc2ccncc2)N1Cc1ccccc1 | 5700 nM | – | 22 nM | –
O=C1N(Cc2ccc(CO)cc2)[C@H](Cc2ccc(F)c(F)c2)[C@H](O)[C@@H](O)[C@@H](Cc2ccc(F)c(F)c2)N1Cc1ccc(CO)cc1 | 36 nM | 76 | 0.47 nM | –
O=C1N(Cc2ccccc2)[C@H](Cc2c[nH]c3ccccc23)[C@H](O)[C@@H](O)[C@@H](Cc2c[nH]c3ccccc23)N1Cc1ccccc1 | > 10000 nM | – | 580 nM | –
O=C1N(CC2CC2)[C@H](Cc2cccs2)[C@H](O)[C@@H](O)[C@@H](Cc2cccs2)N1CC1CC1 | 7800 nM | 860 | 9.1 nM | –
O=C1N(Cc2ccccc2)[C@H](Cc2ccoc2)[C@H](O)[C@@H](O)[C@@H](Cc2ccoc2)N1Cc1ccccc1 | 7800 nM | 920 | 8.4 nM | –
COc1cc(C[C@@H]2[C@H](O)[C@@H](O)[C@@H](Cc3cc(OC)cc(OC)c3)N(CC3CC3)C(=O)N2CC2CC2)cc(OC)c1 | 380 nM | 140 | 2.7 nM | –
O=C1N(CC2CC2)[C@H](Cc2ccc(F)cc2)[C@H](O)[C@@H](O)[C@@H](Cc2ccc(F)cc2)N1CC1CC1 | 3200 nM | 550 | 5.8 nM | –
COc1ccc(C[C@@H]2[C@H](O)[C@@H](O)[C@@H](Cc3ccc(OC)cc3)N(Cc3ccc(CO)cc3)C(=O)N2Cc2ccc(CO)cc2)cc1 | 56 nM | 230 | 0.24 nM | –
O=C1N(Cc2ccccc2)[C@H](Cc2ccc3c(c2)OCO3)[C@H](O)[C@@H](O)[C@@H](Cc2ccc3c(c2)OCO3)N1Cc1ccccc1 | 500 nM | 385 | 1.3 nM | –
O=C1N(Cc2ccc(CO)cc2)[C@H](CC2CCCCC2)[C@H](O)[C@@H](O)[C@@H](CC2CCCCC2)N1Cc1ccc(CO)cc1 | > 10000 nM | – | 32 nM | –
O=C1N(Cc2ccccc2)[C@H](Cc2ccc3ccccc3c2)[C@H](O)[C@@H](O)[C@@H](Cc2ccc3ccccc3c2)N1Cc1ccccc1 | 3300 nM | 340 | 9.8 nM | –
COc1cccc(C[C@@H]2[C@H](O)[C@@H](O)[C@@H](Cc3cccc(OC)c3)N(Cc3ccc(CO)cc3)C(=O)N2Cc2ccc(CO)cc2)c1 | 37 nM | 340 | 0.11 nM | –
CSCC[C@@H]1[C@H](O)[C@@H](O)[C@@H](CCSC)N(Cc2ccccc2)C(=O)N1Cc1ccccc1 | > 10000 nM | – | 1100 nM | –
Nc1cccc(C[C@@H]2[C@H](O)[C@@H](O)[C@@H](Cc3cccc(N)c3)N(Cc3ccccc3)C(=O)N2Cc2ccccc2)c1 | 1300 nM | 460 | 2.8 nM | –
COc1ccc(C[C@@H]2[C@H](O)[C@@H](O)[C@@H](Cc3ccc(OC)cc3)N(Cc3ccccc3)C(=O)N2Cc2ccccc2)cc1 | 600 nM | 70 | 8.6 nM | –
CSCC[C@@H]1[C@H](O)[C@@H](O)[C@@H](CCSC)N(CC2CC2)C(=O)N1CC1CC1 | > 10000 nM | – | – | –
O=C1N(Cc2ccccc2)[C@H](Cc2ccccc2O)[C@H](O)[C@@H](O)[C@@H](Cc2ccccc2O)N1Cc1ccccc1 | 6500 nM | 185 | 35 nM | –
CSc1ccc(C[C@@H]2[C@H](O)[C@@H](O)[C@@H](Cc3ccc(SC)cc3)N(Cc3ccccc3)C(=O)N2Cc2ccccc2)cc1 | 1300 nM | 380 | 3.4 nM | –
CC(C)C[C@@H]1[C@H](O)[C@@H](O)[C@@H](CC(C)C)N(Cc2ccccc2)C(=O)N1Cc1ccccc1 | > 10000 nM | – | 1700 nM | –
Cc1ccc(C)n1-c1cccc(C[C@@H]2[C@H](O)[C@@H](O)[C@@H](Cc3cccc(-n4c(C)ccc4C)c3)N(Cc3ccccc3)C(=O)N2Cc2ccccc2)c1 | > 10000 nM | – | 160 nM | –
COc1cccc(C[C@@H]2[C@H](O)[C@@H](O)[C@@H](Cc3cccc(OC)c3)N(CC3CC3)C(=O)N2CC2CC2)c1 | 650 nM | 750 | 0.87 nM | –

SMILES | IC90 [1, 4] | Ratio [2] | Ki [3] | IC90 [1]
COc1ccc(C[C@@H]2[C@H](O)[C@@H](O)[C@@H](Cc3ccc(OC)cc3)N(CC3CC3)C(=O)N2CC2CC2)cc1 | 320 nM | 110 | 2.9 nM | –
CSc1cccc(C[C@@H]2[C@H](O)[C@@H](O)[C@@H](Cc3cccc(SC)c3)N(Cc3ccccc3)C(=O)N2Cc2ccccc2)c1 | 4170 nM | 1700 | 2.5 nM | –
O=C1N(Cc2ccccc2)[C@H](Cc2ccc(O)cc2)[C@H](O)[C@@H](O)[C@@H](Cc2ccc(O)cc2)N1Cc1ccccc1 | 185 nM | 170 | 1.1 nM | –
CC(C)C[C@@H]1[C@H](O)[C@@H](O)[C@@H](CC(C)C)N(CC2CC2)C(=O)N1CC1CC1 | > 10000 nM | – | 86 nM | –
O=C1N(CC2CC2)[C@H](Cc2ccc3ccccc3c2)[C@H](O)[C@@H](O)[C@@H](Cc2ccc3ccccc3c2)N1CC1CC1 | 3400 nM | 790 | 4.3 nM | –
O=C1N(Cc2ccc(CO)cc2)[C@H](Cc2ccc(F)cc2)[C@H](O)[C@@H](O)[C@@H](Cc2ccc(F)cc2)N1Cc1ccc(CO)cc1 | 100 nM | 230 | 0.44 nM | –
COc1ccccc1C[C@@H]1[C@H](O)[C@@H](O)[C@@H](Cc2ccccc2OC)N(CC2CC2)C(=O)N1CC1CC1 | > 10000 nM | – | 65 nM | –
CSCC[C@@H]1[C@H](O)[C@@H](O)[C@@H](CCSC)N(Cc2ccc(CO)cc2)C(=O)N1Cc1ccc(CO)cc1 | > 10000 nM | – | 3900 nM | –
CC(C)C[C@@H]1[C@H](O)[C@@H](O)[C@@H](CC(C)C)N(Cc2ccc(CO)cc2)C(=O)N1Cc1ccc(CO)cc1 | > 10000 nM | – | 38 nM | –
Nc1ccc(C[C@@H]2[C@H](O)[C@@H](O)[C@@H](Cc3ccc(N)cc3)N(Cc3ccccc3)C(=O)N2Cc2ccccc2)cc1 [listing 1 of 3 here] | – | – | 7.1 nM | 1300 nM
CC(C)[C@@H]1[C@H](O)[C@@H](O)[C@@H](C(C)C)N(CC2CC2)C(=O)N1CC1CC1 | > 10000 nM | – | – | –
O=C1N(CC2CC2)[C@H](Cc2cccc(O)c2)[C@H](O)[C@@H](O)[C@@H](Cc2cccc(O)c2)N1CC1CC1 | 2570 nM | 200 | 13 nM | –
O=C1N(Cc2ccccc2)[C@H](CC2CCCCC2)[C@H](O)[C@@H](O)[C@@H](CC2CCCCC2)N1Cc1ccccc1 | > 10000 nM | – | 28 nM | –
Nc1ccc(C[C@@H]2[C@H](O)[C@@H](O)[C@@H](Cc3ccc(N)cc3)N(Cc3ccccc3)C(=O)N2Cc2ccccc2)cc1 [listing 2 of 3 here] | – | 165 and 180 | – | –
CC(C)c1ccc(C[C@@H]2[C@H](O)[C@@H](O)[C@@H](Cc3ccc(C(C)C)cc3)N(Cc3ccccc3)C(=O)N2Cc2ccccc2)cc1 | > 10000 nM | – | 1.1 nM | –
CN(C)c1ccc(C[C@@H]2[C@H](O)[C@@H](O)[C@@H](Cc3ccc(N(C)C)cc3)N(Cc3ccccc3)C(=O)N2Cc2ccccc2)cc1 | 2700 nM | 60 | 46 nM | –
O=C1N(CC2CC2)[C@H](Cc2ccccc2)[C@H](O)[C@@H](O)[C@@H](Cc2ccccc2)N1CC1CC1 | 1840 nM | 970 | 1.9 nM | –
O=C1N(Cc2ccccc2)[C@H](Cc2ccccc2)[C@H](O)[C@@H](O)[C@@H](Cc2ccccc2)N1Cc1ccccc1 | 790 nM | 230 | 3.4 nM | –
COc1ccccc1C[C@@H]1[C@H](O)[C@@H](O)[C@@H](Cc2ccccc2OC)N(Cc2ccccc2)C(=O)N1Cc1ccccc1 | 8800 nM | 150 | 60 nM | –
O=C1N(Cc2ccc(CO)cc2)[C@H](Cc2ccncc2)[C@H](O)[C@@H](O)[C@@H](Cc2ccncc2)N1Cc1ccc(CO)cc1 | > 10000 nM | – | 4.8 nM | –
O=C1N(Cc2ccc(CO)cc2)[C@H](Cc2ccccc2)[C@H](O)[C@@H](O)[C@@H](Cc2ccccc2)N1Cc1ccc(CO)cc1 [DMP-323] | 136 nM | 500 | 0.27 nM | –
O=C1N(Cc2ccccc2)[C@H](CCc2ccccc2)[C@H](O)[C@@H](O)[C@@H](CCc2ccccc2)N1Cc1ccccc1 | > 10000 nM | – | 320 nM | –
C[C@@H]1[C@H](O)[C@@H](O)[C@@H](C)N(Cc2ccccc2)C(=O)N1Cc1ccccc1 | > 10000 nM | – | 5000 nM | –
Nc1ccc(C[C@@H]2[C@H](O)[C@@H](O)[C@@H](Cc3ccc(N)cc3)N(Cc3ccccc3)C(=O)N2Cc2ccccc2)cc1 [listing 3 of 3 here] | 1400 nM | – | 8.5 nM | –
